Drawing on patent US7981927B2, “Steroids derivatives as selective progesterone receptor modulators” (Janssen Pharmaceutica N.V., priority 2007, dated 2011), this text covers IC50 for two molecules.

SMILES strings stand for the structures.

In this test the test system is T47D human breast cancer cells. The test can be described thus: T47D human breast cancer cells alkaline phosphatase assay. It counts as cell-based. To be noted: 24 h with test compound, alkaline phosphatase luminescence readout. The method, then:
T47D human breast cancer cells were grown in RPMI medium without phenol red (Invitrogen) containing 10% (v/v) heat-inactivated fetal bovine serum (FBS; Hyclone), 1% (v/v) penicillin-streptomycin (Invitrogen), 1% (w/v) glutamine (Invitrogen), and […] insulin (Sigma). Incubation conditions were 37° C. in a humidified 5% (v/v) carbon dioxide environment.
The cells were plated in 96-well tissue culture plates at 10,000 cells per well in assay medium [RPMI medium without phenol red (Invitrogen) containing 5% (v/v) charcoal-treated FBS (Hyclone) and 1% (v/v) penicillin-streptomycin (Invitrogen)]. Two days later, the medium was decanted and test compound or control were added at a final concentration of 0.1% (v/v) dimethyl sulfoxide in fresh assay medium. Twenty-four hours later, an alkaline phosphatase assay was performed using a SEAP kit (BD Biosciences Clontech, Palo Alto, Calif.). Briefly, the medium was decanted and the cells were fixed for 30 minutes at room temperature with 5% (v/v) formalin (Sigma). The cells were washed once with room temperature Hank's buffered saline solution (Invitrogen). […] After 1 hour incubation at room temperature in the dark, the lysate was transferred to a white 96-well plate (Dynex) and luminescence was read using a LuminoSkan Ascent (Thermo Electron, Woburn, Mass.). […]

On to `CC#C[C@]1(O)OCC[C@H]2[C@@H]3CCC4=CC(=O)CCC4=C3[C@@H](c3ccc(N(C)C)cc3)C[C@@]21C` (stereo in doubt) [compound 2, 11-(4-Dimethylamino-phenyl)-1-hydroxy-12a-methyl-1-prop-1-ynyl-1,3,4,4a,4b,5,6,9,10,11,12,12a-dodecahydro-2-oxa-chrysen-8-one], for which the IC50 stood at 0.033 µM.

For `CN(C)c1ccc([C@@H]2C[C@]3(C)C(=O)OCC[C@H]3[C@@H]3CCC4=CC(=O)CCC4=C23)cc1` (stereo in doubt) [compound 1, 11-(4-Dimethylamino-phenyl)-12a-methyl-3,4,4a,5,6,9,10,11,12,12a-decahydro-4bH-2-oxa-chrysene-1,8-dione], the IC50 came to 0.75 µM.
